Measured values from patent US20070128217A1 (priority 2003, published 2007).

Tests used:
[1] = tested on: antibodies in sera from SARS patients (sera 1a, 1b, 2, 6, 37, 62, London, SARS-yellow, SARS-green); assay type: binding, human; parameters: Binding of serum 6 to linear peptides of protein X1 of SARS-CoV Urbani / Binding of serum 37 to linear peptides of protein X1 of SARS-CoV Urbani / Binding of serum 6 to looped/cyclic peptide (PEPSCAN-ELISA) / Binding of serum 37 to looped/cyclic peptide (PEPSCAN-ELISA) / Binding of serum 37 to looped/cyclic peptides of protein X1 of SARS-CoV Urbani / Binding of serum 6 to linear peptides of protein X2 / Binding of serum 37 to linear peptides of protein X2 / Binding of serum 37 to looped/cyclic peptides of protein X2 of SARS-CoV Urbani / Binding of serum 6 to linear peptides of protein M of SARS-CoV Urbani / Binding of serum 37 to linear peptides of protein M of SARS-CoV Urbani / Binding of serum 6 to looped/cyclic peptides of protein M of SARS-CoV Urbani / Binding of serum 37 to looped/cyclic peptides of protein M of SARS-CoV Urbani / Binding of serum 6 to linear peptides of protein X3 of SARS-CoV Urbani / Binding of serum 37 to linear peptides of protein X3 of SARS-CoV Urbani / Binding of serum 37 to looped/cyclic peptides of protein X3 of SARS-CoV Urbani / Binding of serum 6 to linear peptides of protein X4 of SARS-CoV Urbani / Binding of serum 37 to linear peptides of protein X4 of SARS-CoV Urbani / Binding of serum 37 to looped/cyclic peptides of protein X4 of SARS-CoV Urbani / Binding of serum 6 to linear peptides of protein X5 of SARS-CoV Urbani / Binding of serum 37 to linear peptides of protein X5 of SARS-CoV Urbani / Binding of serum 37 to looped/cyclic peptides of protein X5 of SARS-CoV Urbani / Binding of serum 6 to linear peptides of protein N of SARS-CoV Urbani / Binding of serum 37 to linear peptides of protein N of SARS-CoV Urbani / Binding of serum 6 to linear peptide (PEPSCAN-ELISA) / Binding of serum 1a to looped/cyclic peptides of protein N of SARS-CoV Urbani / Binding of serum 1b to looped/cyclic peptides of protein N of SARS-CoV Urbani / Binding of serum 2 to looped/cyclic peptides of protein N of SARS-CoV Urbani / Binding of serum 6 to looped/cyclic peptides of protein N of SARS-CoV Urbani / Binding of serum 37 to looped/cyclic peptides of protein N of SARS-CoV Urbani / Binding of serum 62 to looped/cyclic peptides of protein N of SARS-CoV Urbani / Binding of serum London to looped/cyclic peptides of protein N of SARS-CoV Urbani / Binding of serum SARS-green to looped/cyclic peptides of protein N of SARS-CoV Urbani: unit not given here
[2] = tested on: control sera (pooled serum of ten healthy LUMC hospital workers; commercial negative donor pooled serum from the Dutch bloodbank); assay type: binding, human; parameters: Binding of Control serum LUMC to linear peptides / Binding of Control serum Blood-bank to linear peptides / Binding of Control serum LUMC to looped peptides / Binding of Control Serum Blood-Bank to Looped peptides / Binding of Control serum LUMC to linear peptides of the protein M of SARS-CoV Urbani / Binding of Control serum Blood-bank to linear peptides of the protein M of SARS-CoV Urbani / Binding of Control serum LUMC to looped peptides of the protein M of SARS-CoV Urbani / Binding of Control Serum Blood-Bank to Looped peptides of the protein M of SARS-CoV Urbani: unit not given here
[3] = tested on: rabbit serum obtained by immunizing a rabbit with the SARS-CoV strain Frankfurt 1; assay type: binding; parameters: Binding of a rabbit serum to linear peptides / Binding of a rabbit serum to looped peptides / Rabbit serum linear peptides / Rabbit serum looped peptides / Binding of a rabbit serum to linear peptides of protein N of SARS-CoV Urbani (Rabbit serum linear peptides) / Binding of a rabbit serum to looped/cyclic peptides of protein N of SARS-CoV Urbani (Rabbit serum looped peptides): unit not given here

## ILFLTLIVFTSCELY
[1]
  Binding of serum 1a to linear peptides of protein X4 of SARS-CoV Urbani: 0.7
  Binding of serum 1a to looped/cyclic peptides of protein X4 of SARS-CoV Urbani: 0.7
  Binding of serum 1b to linear peptides of protein X4 of SARS-CoV Urbani: 0.6
  Binding of serum 1b to looped/cyclic peptides of protein X4 of SARS-CoV Urbani: 0.4
  Binding of serum 2 to linear peptides of protein X4 of SARS-CoV Urbani: 0.5
  Binding of serum 2 to looped/cyclic peptides of protein X4 of SARS-CoV Urbani: 0.7
  Binding of serum 6 to linear peptides of protein X4 of SARS-CoV Urbani: 0.5
  Binding of serum 6 to looped/cyclic peptides of protein X4 of SARS-CoV Urbani: 0.6
  Binding of serum 37 to linear peptides of protein X4 of SARS-CoV Urbani: 0.7
  Binding of serum 37 to looped/cyclic peptides of protein X4 of SARS-CoV Urbani: 0.7
  Binding of serum 62 to linear peptides of protein X4 of SARS-CoV Urbani: 0.7
  Binding of serum 62 to looped/cyclic peptides of protein X4 of SARS-CoV Urbani: 0.7
  Binding of serum London to linear peptides of protein X4 of SARS-CoV Urbani: 0.6
  Binding of serum London to looped/cyclic peptides of protein X4 of SARS-CoV Urbani: 0.3
  Binding of serum SARS-green to linear peptides of protein X4 of SARS-CoV Urbani: 0.6
  Binding of serum SARS-green to looped/cyclic peptides of protein X4 of SARS-CoV Urbani: 0.4
  Binding of serum SARS-yellow to linear peptides of protein X4 of SARS-CoV Urbani: 0.4
  Binding of serum SARS-yellow to looped/cyclic peptides of protein X4 of SARS-CoV Urbani: 0.6
[2]
  Binding of Control Serum Blood-Bank to Looped peptides: 0.7
  Binding of Control serum Blood-bank to linear peptides: 0.6
  Binding of Control serum LUMC to linear peptides: 0.7
  Binding of Control serum LUMC to looped peptides: 0.8
[3]
  Rabbit serum linear peptides: 0.7
  Rabbit serum looped peptides: 0.2

## LCWKCKSKNPLLYDA
[1]
  Binding of serum 1a to looped/cyclic peptide (PEPSCAN-ELISA): 0.8
  Binding of serum 1b to looped/cyclic peptide (PEPSCAN-ELISA): 0.5
  Binding of serum 2 to looped/cyclic peptide (PEPSCAN-ELISA): 0.7
  Binding of serum 6 to looped/cyclic peptide (PEPSCAN-ELISA): 0.8
  Binding of serum 37 to looped/cyclic peptide (PEPSCAN-ELISA): 0.7
  Binding of serum 62 to looped/cyclic peptide (PEPSCAN-ELISA): 0.8
  Binding of serum London to looped/cyclic peptide (PEPSCAN-ELISA): 0.3
  Binding of serum SARS-green to looped/cyclic peptide (PEPSCAN-ELISA): 0.3
  Binding of serum SARS-yellow to looped/cyclic peptide (PEPSCAN-ELISA): 0.7
  Recognition of the peptide by sera of SARS-CoV infected individuals, and form (linear, looped/cyclic) in which it is recognized: recognized in linear form
[2]
  Binding of Control Serum Blood-Bank to Looped peptides: 0.8
  Binding of Control serum Blood-bank to linear peptides: 0.7
  Binding of Control serum LUMC to linear peptides: 0.7
  Binding of Control serum LUMC to looped peptides: 0.8
[3]
  Binding of a rabbit serum to linear peptides: 0.3
  Binding of a rabbit serum to looped peptides: 0.8

## FVTIYSHLLLVAAGM
[1]
  Binding of serum 1a to linear peptides of protein X1 of SARS-CoV Urbani: 0.7
  Binding of serum 1a to looped/cyclic peptide (PEPSCAN-ELISA): 0.5
  Binding of serum 1b to linear peptides of protein X1 of SARS-CoV Urbani: 0.5
  Binding of serum 1b to looped/cyclic peptide (PEPSCAN-ELISA): 0.3
  Binding of serum 2 to linear peptides of protein X1 of SARS-CoV Urbani: 0.6
  Binding of serum 2 to looped/cyclic peptide (PEPSCAN-ELISA): 0.3
  Binding of serum 6 to linear peptides of protein X1 of SARS-CoV Urbani: 0.4
  Binding of serum 6 to looped/cyclic peptide (PEPSCAN-ELISA): 0.3
  Binding of serum 37 to linear peptides of protein X1 of SARS-CoV Urbani: 0.5
  Binding of serum 37 to looped/cyclic peptide (PEPSCAN-ELISA): 0.5
  Binding of serum 62 to linear peptides of protein X1 of SARS-CoV Urbani: 0.5
  Binding of serum 62 to looped/cyclic peptide (PEPSCAN-ELISA): 0.5
  Binding of serum London to linear peptides of protein X1 of SARS-CoV Urbani: 0.2
  Binding of serum London to looped/cyclic peptide (PEPSCAN-ELISA): 0.2
  Binding of serum SARS-green to linear peptides of protein X1 of SARS-CoV Urbani: 0.3
  Binding of serum SARS-green to looped/cyclic peptide (PEPSCAN-ELISA): 0.2
  Binding of serum SARS-yellow to linear peptides of protein X1 of SARS-CoV Urbani: 0.5
  Binding of serum SARS-yellow to looped/cyclic peptide (PEPSCAN-ELISA): 0.3
[2]
  Binding of Control Serum Blood-Bank to Looped peptides: 0.6
  Binding of Control serum Blood-bank to linear peptides: 0.6
  Binding of Control serum LUMC to linear peptides: 0.5
  Binding of Control serum LUMC to looped peptides: 0.5
[3]
  Binding of a rabbit serum to linear peptides: 0.1
  Binding of a rabbit serum to looped peptides: 0.5

## LTLIVFTSCELYHYQ
[1]
  Binding of serum 1a to linear peptides of protein X4 of SARS-CoV Urbani: 0.7
  Binding of serum 1a to looped/cyclic peptides of protein X4 of SARS-CoV Urbani: 0.8
  Binding of serum 1b to linear peptides of protein X4 of SARS-CoV Urbani: 0.6
  Binding of serum 1b to looped/cyclic peptides of protein X4 of SARS-CoV Urbani: 0.7
  Binding of serum 2 to linear peptides of protein X4 of SARS-CoV Urbani: 0.5
  Binding of serum 2 to looped/cyclic peptides of protein X4 of SARS-CoV Urbani: 0.7
  Binding of serum 6 to linear peptides of protein X4 of SARS-CoV Urbani: 0.5
  Binding of serum 6 to looped/cyclic peptides of protein X4 of SARS-CoV Urbani: 0.5
  Binding of serum 37 to linear peptides of protein X4 of SARS-CoV Urbani: 0.7
  Binding of serum 37 to looped/cyclic peptides of protein X4 of SARS-CoV Urbani: 0.7
  Binding of serum 62 to linear peptides of protein X4 of SARS-CoV Urbani: 0.8
  Binding of serum 62 to looped/cyclic peptides of protein X4 of SARS-CoV Urbani: 0.7
  Binding of serum London to linear peptides of protein X4 of SARS-CoV Urbani: 0.7
  Binding of serum London to looped/cyclic peptides of protein X4 of SARS-CoV Urbani: 0.3
  Binding of serum SARS-green to linear peptides of protein X4 of SARS-CoV Urbani: 0.7
  Binding of serum SARS-green to looped/cyclic peptides of protein X4 of SARS-CoV Urbani: 0.4
  Binding of serum SARS-yellow to linear peptides of protein X4 of SARS-CoV Urbani: 0.4
  Binding of serum SARS-yellow to looped/cyclic peptides of protein X4 of SARS-CoV Urbani: 0.7
[2]
  Binding of Control Serum Blood-Bank to Looped peptides: 0.7
  Binding of Control serum Blood-bank to linear peptides: 0.7
  Binding of Control serum LUMC to linear peptides: 0.7
  Binding of Control serum LUMC to looped peptides: 0.8
[3]
  Rabbit serum linear peptides: 0.5
  Rabbit serum looped peptides: 0.3

## NSVTDTIVVTEGDGI
[1]
  Binding of serum 1a to linear peptides of protein X1 of SARS-CoV Urbani: 0.6
  Binding of serum 1a to looped/cyclic peptides of protein X1 of SARS-CoV Urbani: 0.4
  Binding of serum 1b to linear peptides of protein X1 of SARS-CoV Urbani: 0.5
  Binding of serum 1b to looped/cyclic peptides of protein X1 of SARS-CoV Urbani: 0.3
  Binding of serum 2 to linear peptides of protein X1 of SARS-CoV Urbani: 0.4
  Binding of serum 2 to looped/cyclic peptides of protein X1 of SARS-CoV Urbani: 0.2
  Binding of serum 6 to linear peptides of protein X1 of SARS-CoV Urbani: 0.4
  Binding of serum 6 to looped/cyclic peptides of protein X1 of SARS-CoV Urbani: 0.2
  Binding of serum 37 to linear peptides of protein X1 of SARS-CoV Urbani: 0.5
  Binding of serum 37 to looped/cyclic peptides of protein X1 of SARS-CoV Urbani: 0.4
  Binding of serum 62 to linear peptides of protein X1 of SARS-CoV Urbani: 0.4
  Binding of serum 62 to looped/cyclic peptides of protein X1 of SARS-CoV Urbani: 0.4
  Binding of serum London to linear peptides of protein X1 of SARS-CoV Urbani: 0.2
  Binding of serum London to looped/cyclic peptides of protein X1 of SARS-CoV Urbani: 0.2
  Binding of serum SARS-green to linear peptides of protein X1 of SARS-CoV Urbani: 0.2
  Binding of serum SARS-green to looped/cyclic peptides of protein X1 of SARS-CoV Urbani: 0.3
  Binding of serum SARS-yellow to linear peptides of protein X1 of SARS-CoV Urbani: 0.6
  Binding of serum SARS-yellow to looped/cyclic peptides of protein X1 of SARS-CoV Urbani: 0.3
[2]
  Binding of Control Serum Blood-Bank to Looped peptides: 0.4
  Binding of Control serum Blood-bank to linear peptides: 0.3
  Binding of Control serum LUMC to linear peptides: 0.4
  Binding of Control serum LUMC to looped peptides: 0.5
[3]
  Binding of a rabbit serum to linear peptides: 0.1
  Binding of a rabbit serum to looped peptides: 0.5
